*1 amine or outer side, *2 acyl side, *3 side chain or, on linkers, in order; H or OH if unused. Where a SMILES comes first, the peptide text is derived from it. Bridges are numbered along the chain shown (N, C = ends). Roman numbers before positions name the chains, in order. [ ]: non-standard residue; d: D form. Actinocin(1to9) = Cc1c2oc3c(C)ccc(C(=O)[*:2])c3nc-2c(C(=O)[*:1])c(N)c1=O; NMeV = CN[C@H](C(=O)O)C(C)C; Sar = CNCC(=O)O
System: A2780
Assay: Cytotoxicity against human A2780 cells
Type: functional, cell-based

SMILES: Cc1c2oc3c(C)ccc(C(=O)N[C@@H]4C(=O)N[C@H](C(C)C)C(=O)N5CCC[C@H]5C(=O)N(C)CC(=O)N(C)[C@@H](C(C)C)C(=O)O[C@@H]4C)c3nc-2c(C(=O)N[C@@H]2C(=O)N[C@H](C(C)C)C(=O)N3CCC[C@H]3C(=O)N(C)CC(=O)N(C)[C@@H](C(C)C)C(=O)O[C@@H]2C)c(N)c1=O [DACTINOMYCIN] (I: T[dV]P[Sar][NMeV] / II: T[dV]P[Sar][NMeV]; ester I:1-I:C, II:1-II:C; linker I:N-II:N via Actinocin(1to9))
- IC50: 0.0008 µM

SMILES: C=C(C)C(=O)O[C@H]1C[C@H](C)[C@@H](OC(C)=O)CC[C@@]2(C)O[C@@H]2[C@H]2OC(=O)C(COC(C)=O)=C12 [GLAUCOLIDE K]
- IC50: 5.8 µM

SMILES: C=C(C)C(=O)O[C@H]1C[C@H](C)[C@@H](OC(C)=O)CC[C@@]2(C)O[C@@H]2[C@H]2OC(=O)C(CO)=C12 [GLAUCOLIDE L]
- IC50: 24.5 µM

SMILES: C=C(C)C(=O)O[C@H]1C[C@H](C)[C@@H](OC(C)=O)CC[C@@](C)(O)/C=C2/OC(=O)C(COC(C)=O)=C21 [GLAUCOLIDE M]
- IC50: 3.3 µM

Reference: ChEMBL document CHEMBL1141804, “Cytotoxic sesquiterpene lactones from Vernonia pachyclada from the Madagascar rainforest” (J Nat Prod, 2005)
